# Source: US20030054985A1, “N-cadherin modulated migration, invasion, and metastasis” (priority 2000, published 2003)
# Entries after “also recorded” stand apart in the source; their conditions may differ.
# What was measured:
# Format in all cases: cell-based, human
# MMP-9 = assay: Zymography of conditioned media
# Protocol: FIG. 9. FGF-2 stimulates Matrigel invasion of N-cadherin-expressing cells and expression of MMP-9. (A) Invasion through Matrigel-coated filters of control and N-cadherin-expressing cells, pretreated for 24 h with 10 ng/ml of FGF-2 or left untreated, as measured 5 h after inoculation into Transwell chambers. The invading cells were stained (see Materials and Methods) and photographed using a digital microscope camera. Each panel illustrates a sample representing three to six filters. (B) Gelatinolytic activity of conditioned media of control (Neo-mass) (lanes 1 and 2) or N-cadherin-transfected MCF-7 cells (N-cad-mas, N-cad-5, and N-cad-17; lanes 3-8) that were either treated with FGF-2, or left untreated, as indicated. […]
# FIG. 12. […] A. MCF-7 breast cancer cells expressing either control vector (control) or N-cadherin (N-cad-5) were treated with or without FGF-2 and the relative activation of MAPK was assessed by blotting the lysates with anti phospho-MAPK (P-MAPK) (upper panel A, lanes 1-4) against the total levels of MAPK in the same lysates (T-MAPK) (lower panel A, lanes 1-4). […]
# Secreted metalloproteinases were detected and characterized by zymography (Nakajima I et al., 1995, Br. J. Cancer. 71:1039-1045). […]
# MAPK = assay: Anti-phospho-MAPK immunoblot of cell lysates
# Protocol: FIG. 12. N-cadherin synergizes with FGF-2 in promoting MAPK activation and MMP-9 production. A. MCF-7 breast cancer cells expressing either control vector (control) or N-cadherin (N-cad-5) were treated with or without FGF-2 and the relative activation of MAPK was assessed by blotting the lysates with anti phospho-MAPK (P-MAPK) (upper panel A, lanes 1-4) against the total levels of MAPK in the same lysates (T-MAPK) (lower panel A, lanes 1-4). B. MCF-7 breast cancer cells expressing N-cadherin (N-cad-5) were treated with or without FGF-2 in the absence or presence of a potent inhibitor of MAPK ([…]) and cell lysates were blotted with anti-P-MAPK antibodies (lower panel B) or assayed for MMP (Matrix Metallo Protease) production (upper panel B).
# To determine whether N-cadherin/FGF-2-stimulated expression of MMP-9 is caused by increased MAPK activity, levels of MAPK activation in N-cadherin-expressing MCF-7 cells (N-cad-5) were compared to those found in control MCF-7 cells (Neo-mass) in response to FGF-2. Serum-starved control and N-cad-5 cells were treated with 10 ng/mL FGF-2 for 10 min and 30 μg of cell lysate were subjected to SDS-PAGE and immunobloting with either anti-phospho-MAPK (P-MAPK) or anti-total MAPK (T-MAPK).
# Neo-mass cell = assay: Matrigel invasion assay after FGF-2 pretreatment; settings: 10 ng/ml FGF-2 for 24 h, 5 h of incubation
# Protocol: (§1) FIG. 9. FGF-2 stimulates Matrigel invasion of N-cadherin-expressing cells and expression of MMP-9. (A) Invasion through Matrigel-coated filters of control and N-cadherin-expressing cells, pretreated for 24 h with 10 ng/ml of FGF-2 or left untreated, as measured 5 h after inoculation into Transwell chambers. The invading cells were stained (see Materials and Methods) and photographed using a digital microscope camera. Each panel illustrates a sample representing three to six filters. (B) Gelatinolytic activity of conditioned media of control (Neo-mass) (lanes 1 and 2) or N-cadherin-transfected MCF-7 cells (N-cad-mas, N-cad-5, and N-cad-17; lanes 3-8) that were either treated with FGF-2, or left untreated, as indicated. […] The ability of cells to migrate through control (migration) or invade through Matrigel-coated filters (invasion) was measured in a Boyden chamber, 8-micron Transwell filters, which were coated with or without 50 μg Matrigel (Becton Dickinson & Co.), were used according to standard protocols (Albini A et al., 1987, Cancer Res 47:3239-3245). […] Values for invasion were expressed as the average number of migrated cells bound per microscopic field over four fields per assay and expressed as averages for triplicate experiments.
# [1] = test system: N-cadherin-expressing MCF-7 cells; assay: Matrigel invasion assay after FGF-2 pretreatment; settings: N-cad mass, N-cad-5 and N-cad-17; 10 ng/ml FGF-2 for 24 h, 5 h of incubation
# Protocol: as §1
# [2] = test system: N-cadherin-expressing cell lines (N-cad-mass, N-cad-5, N-cad-17); assay: Transwell migration after FGF-2 pretreatment; settings: pretreated 24 h with 10 ng/ml FGF-2, measured 5 h after inoculation into Transwell chambers
# Protocol: (§2) FIG. 8. Stimulates cell migration of N-cadherin-expressing cells. The motility of control (Neo-mass) and N-cadherin-expressing cells (N-cad-mass, N-cad-5, and N-cad-17), pretreated for 24 h with 10 ng/ml of FGF-2 or left untreated, was measured 5 h after inoculation into the Transwell chambers. (A) The migrating cells were fixed, stained, and photographed; each panel represents an example of 3-6 replicates. (B) Bar graphs represent quantitation of triplicate wells. The experiment was repeated six times.
# (§3) The ability of cells to migrate through control (migration) or invade through Matrigel-coated filters (invasion) was measured in a Boyden chamber, 8-micron Transwell filters, which were coated with or without 50 μg Matrigel (Becton Dickinson & Co.), were used according to standard protocols (Albini A et al., 1987, Cancer Res 47:3239-3245). Fibroblast conditioned medium, which was obtained by a 24-h incubation of NTH-3T3 cells with 50 μg/mL ascorbic acid in serum-free DME media, was placed in the lower chamber as a chemoattractant. […] Values for invasion were expressed as the average number of migrated cells bound per microscopic field over four fields per assay and expressed as averages for triplicate experiments.
# Neo-mass cell line = assay: Transwell migration after FGF-2 pretreatment; settings: pretreated 24 h with 10 ng/ml FGF-2, measured 5 h after inoculation into Transwell chambers
# Protocol: as §2, §3
# MMP-2 = assay: Zymography of conditioned media; settings: N-cadherin transfectants, FGF-2 10 ng/ml
# Protocol: (§4) FIG. 9. FGF-2 stimulates Matrigel invasion of N-cadherin-expressing cells and expression of MMP-9. (A) Invasion through Matrigel-coated filters of control and N-cadherin-expressing cells, pretreated for 24 h with 10 ng/ml of FGF-2 or left untreated, as measured 5 h after inoculation into Transwell chambers. The invading cells were stained (see Materials and Methods) and photographed using a digital microscope camera. Each panel illustrates a sample representing three to six filters. (B) Gelatinolytic activity of conditioned media of control (Neo-mass) (lanes 1 and 2) or N-cadherin-transfected MCF-7 cells (N-cad-mas, N-cad-5, and N-cad-17; lanes 3-8) that were either treated with FGF-2, or left untreated, as indicated. (C) Gelatinolytic activity of conditioned media of Neo-mass, N-cad-mass, N-cad-5, and N-cad- 17 that were pretreated for 24 h either with 10 ng/ml of FGF-2 (lanes 1, 3, 5 and 7, respectively) or 5 μg/ml insulin (lanes 2, 4, 6, and 8, respectively).
# (§5) Secreted metalloproteinases were detected and characterized by zymography (Nakajima I et al., 1995, Br. J. Cancer. 71:1039-1045). Conditioned media were obtained by a 30-h incubation of N-cadherin and control transfected cells, which were treated overnight with or without FGF-2 (10 ng/ml) and heparin (0.1 mg/ml) in serum-free media. Conditioned media (20 μl) were loaded on 8% SDS PAGE gels that had been copolymerized with 1 mg/ml gelatin. Electrophoresis was performed under nonreducing conditions at 100 V for 2 h at 4° C. Gels were washed once for 30 min in 2.5% Triton X-100 to remove SDS, and were incubated in collagenase buffer (100 mM Tris-HCl pH 8.0, 5 mM CaCl2, 0.02% NaN3) for 40 h at 37° C. Gels were stained with 0.5% Coomassie blue in 30% methanol/10% acetic acid for 30 min at room temperature and destained in 30% methanol/10% acetic acid three times for 15 min. The presence of metalloproteinases was indicated by an unstained proteolytic zone in the substrate. […]
# MMP = assay: Zymography of conditioned media
# Protocol: as §4, §5
# [3] = N-cad-5 cells, FGF-2 plus inhibitor
compound,measurement,setting,value
"COc1cccc(-c2cc(=O)c3ccccc3o2)c1N [PD 90859, reference compound]",production of MMP-9 induced by FGF-2,MMP-9; [3],blocked
same,phosphorylation of MAPK induced by FGF-2,MAPK; [3],blocked effectively
"FGF-2: growth factor FGF-2, purchased from Pepro Tech",invasion through Matrigel-coated filters,Neo-mass cell,not effect
same,invasiveness through Matrigel-coated filters,[1],further enhanced; also recorded: stimulates
same,motility,[2],dramatic increase
same,motility,Neo-mass cell line,did not affect
same,expression of MMP-9,"MMP-9; all N-cadherin transfectants, FGF-2 10 ng/ml, conditioned media",dramatically increased; also recorded: stimulates
same,MAPK phosphorylation,"MAPK; N-cad-5 cells, 10 ng/mL FGF-2 for 10 min",marked increase
same,MAPK phosphorylation (ERK/P44 isoform),"MAPK; control MCF-7 cells, in the presence of FGF-2",only low levels of phosphorylation
same,MMP-2 production,MMP-2,absence of detectable effects
same,MMP production,"MMP; Neo-mass cells, FGF-2 10 ng/ml, conditioned media",no effect
"insulin: Insulin from Sigma, used at a concentration that acts through the IGF-1 receptor",MMP levels,"MMP; N-cad-mass, N-cad-5, N-cad-17, 5 μg/ml insulin for 24 h",no effect
